Data as given in ChEMBL document CHEMBL3853282, “(±)-Japonicols A-D, Acylphloroglucinol-Based Meroterpenoid Enantiomers with Anti-KSHV Activities from Hypericum japonicum” (J Nat Prod, 2016).

Experiments:
[1] = Cytotoxicity against African green monkey Vero cells assessed as reduction in cell viability after 48 hrs by Alamar blue assay; format: toxicity, cell-based; conditions: chlorocebus sabaeus
Human gammaherpesvirus 8 = assay: Antiviral activity against Kaposi's sarcoma-associated herpesvirus infected in African green monkey Vero cells exposed to supernatant from 48 hrs compound treated human iSLK.219 cells infected with KSHV by GFP based microscopy; format: functional, cell-based; conditions: Human gammaherpesvirus 8, Vero
[2] = Selectivity index, ratio of CC50 for African green monkey Vero cells to EC50 for Kaposi's sarcoma-associated herpesvirus infected in African green monkey Vero cells; format: toxicity, cell-based; conditions: read-out: Ratio CC50/EC50

Compound | EC50 (Human gammaherpesvirus 8) | CC50 at 48 h [1] | selectivity ratio [2]
CC(C)C(=O)c1c(O)cc(O)c(C[C@@H]2[C@@H](C(C)(C)O)CC[C@]2(C)O)c1O | 158 µM | > 300 µM | > 1.89
CC(C)C(=O)c1c(O)cc(O)c2c1O[C@@]1(C)CC[C@@H](C(C)(C)O)[C@@H]2[C@H]1O | 203 µM | > 500 µM | > 2.46
CC(C)C(=O)c1c(O)cc(O)c(C[C@H]2[C@H](C(C)(C)O)CC[C@@]2(C)O)c1O | 40 µM | > 300 µM | > 7.5
CC(C)C(=O)c1c(O)cc(O)c2c1O[C@]1(C)CC[C@H](C(C)(C)O)[C@H]2[C@@H]1O | 141 µM | > 500 µM | > 3.55

Continued by falling EC50 (Human gammaherpesvirus 8), values first:

EC50 (Human gammaherpesvirus 8) | Compound | CC50 at 48 h [1] | selectivity ratio [2]
39.8 µM | CC(C)C(=O)c1c(O)cc(O)c2c1OC(C)(C)[C@@H]1CC[C@@](C)(O)[C@H]1C2 | > 300 µM | 
29.1 µM | CC(C)C(=O)c1c(O)cc(O)c2c1O[C@]1(C)CC[C@@H](C(C)(C)O)O[C@@H]1C2 | 174 µM | 
17.7 µM | CC(C)C(=O)c1c(O)cc(O)c2c1OC(C)(C)[C@H]1CC[C@](C)(O)[C@@H]1C2 | 221 µM | 
8.75 µM | CC(C)C(=O)c1c(O)cc(O)c2c1O[C@@]1(C)CC[C@H](C(C)(C)O)O[C@H]1C2 | 141 µM | 
